ChEMBL document CHEMBL1135139, “Solid-phase synthesis of thrombin inhibitors” (Bioorg Med Chem Lett, 2002)

Target: Prothrombin (Homo sapiens, UniProt P00734)
Assay: In vitro Inhibitory concentration against Thrombin

IC50: 3.6 nM
SMILES: N=C(N)c1ccc(CNC(=O)[C@@H]2C=CCN2C(=O)[C@@H](CC2CCCCC2)NCC(=O)O)s1
